Key:
Format in all cases: cell-based, human
[1] = system: tenascin; assay: Immunofluorescence of tenascin in reconstructed skin sections
[2] = system: fibroblasts in the lattice of reconstructed skin; assay: Reconstructed skin grown with vitamin C in the culture medium: number of fibroblasts; details: vitamin C in culture medium throughout the phase of emersion
Description: This increase is associated with a greater production of certain proteins of the extracellular matrix, in particular in the sub-epidermal zone. The most spectacular results are found in this region of the dermo-epidermal junction, with a more perpendicular arrangement of the basal keratinocytes and an increased synthesis of major components of the basal membrane, for instance tenascin and collagen VII.

[3] = system: collagen VII; assay: Immunofluorescence of collagen VII in reconstructed skin sections
[4] = reconstructed skin, vitamin CPMg 2.8′10^−4 M, 7-day emersion phase, × control

## O=C1O[C@H]([C@@H](O)CO)C([O-])=C1OP(=O)([O-])[O-].O=C1O[C@H]([C@@H](O)CO)C([O-])=C1OP(=O)([O-])[O-].[Mg+2].[Mg+2].[Mg+2] [Vitamin C, magnesium ascorbyl phosphate]
[1]; microscopic observation, FIG. 2
  Intensity and thickness of the zone of tenascin fluorescence (dermo-epidermal junction and superficial dermis), versus sample without vitamin C: much larger
[1]; reconstructed skin, vitamin CPMg 2.8′10^−4 M during 7-day emersion phase, image analysis, standardized to identical length of dermo-epidermal junction, control 6.4
  Tenascin fluorescence intensity/unit of length: 11.54 arbitrary units
[1]; [4]
  Tenascin fluorescence intensity/unit of length, factor versus control: 1.80
[2]
  Number of fibroblasts in the lattice: very large increase
[3]; microscopic observation, FIG. 1
  Intensity and thickness of the zone of collagen VII fluorescence at the dermo-epidermal junction, versus sample without vitamin C: much greater
[3]; reconstructed skin, vitamin CPMg 2.8′10^−4 M during 7-day emersion phase, image analysis, normalized to identical length of dermo-epidermal junction, control 1.35
  Collagen VII fluorescence intensity/unit of length: 2.50 arbitrary units
[3]; [4]
  Collagen VII fluorescence intensity/unit of length, factor versus control: 1.85
